Drawing on patent US20160279187A1, “CALPAIN INHIBITORS FOR IBD AND COLORECTAL CANCER TREATMENT” (UNIVERSITY OF HAWAII, priority 2013, published 2016), this text covers M-Calpain activity for one compound.

SMILES strings stand for the structures. Where a SMILES comes first, the peptide text is derived from it. The star is where a group is joined. Cbz = O=C(OCc1ccccc1)*; CH2F = FC*

The target of this experiment is T1, M-Calpain activity in CT-26 WT cells (Mus musculus, UniProt O08529).
T1 construct: endogenous in cells; host or cells: CT-26.WT mouse colon cancer cells
T1 sequence (O08529 20-700 limits assumed): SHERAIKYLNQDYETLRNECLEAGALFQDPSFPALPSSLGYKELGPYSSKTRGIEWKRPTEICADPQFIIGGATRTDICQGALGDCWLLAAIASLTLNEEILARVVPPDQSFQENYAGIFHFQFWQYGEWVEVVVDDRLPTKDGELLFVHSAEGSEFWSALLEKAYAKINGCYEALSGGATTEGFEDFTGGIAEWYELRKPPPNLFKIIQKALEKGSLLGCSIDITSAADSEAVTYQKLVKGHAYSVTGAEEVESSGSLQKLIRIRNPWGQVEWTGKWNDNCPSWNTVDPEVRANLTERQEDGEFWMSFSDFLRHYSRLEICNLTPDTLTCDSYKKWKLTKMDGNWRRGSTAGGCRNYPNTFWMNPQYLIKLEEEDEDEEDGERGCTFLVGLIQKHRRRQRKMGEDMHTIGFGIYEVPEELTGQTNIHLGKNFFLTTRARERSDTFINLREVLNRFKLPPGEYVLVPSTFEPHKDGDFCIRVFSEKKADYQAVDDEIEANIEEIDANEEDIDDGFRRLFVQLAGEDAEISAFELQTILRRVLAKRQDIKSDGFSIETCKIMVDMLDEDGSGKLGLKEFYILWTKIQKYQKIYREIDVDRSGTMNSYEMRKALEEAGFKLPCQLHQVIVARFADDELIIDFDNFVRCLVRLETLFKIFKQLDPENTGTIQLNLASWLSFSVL
T1 sequence (O88456 1-268 partner): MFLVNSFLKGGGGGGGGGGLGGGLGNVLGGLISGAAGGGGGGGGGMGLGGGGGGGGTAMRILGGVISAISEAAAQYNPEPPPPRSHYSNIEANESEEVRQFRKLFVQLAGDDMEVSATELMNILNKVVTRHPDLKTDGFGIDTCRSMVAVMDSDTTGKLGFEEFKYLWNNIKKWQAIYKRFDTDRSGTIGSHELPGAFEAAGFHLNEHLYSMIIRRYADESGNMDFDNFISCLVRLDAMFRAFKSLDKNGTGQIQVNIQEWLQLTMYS
Nature of the experiment: Calpain Activity Assay Kit (BioVision), CT-26.WT. The experiment is classed as cell-based. The note with it: vs DMSO, 1 hour. The method, then: Bone marrow derived macrophages (BMDM) were prepared as previously described by methods known to those skilled in the art. On day 5 of culture, 2×10^6 BMDM were seeded in 6-well plates and the following day were primed for 18 h with TNFα (20 ng/mL), followed by 1 h stimulation with E. faecalis (1 μg/mL; ATCC). Stimulation with E. faecalis was conducted in the presence of the zLLY-CH2F calpain-2 inhibitor (20 μg/mL) or DMSO as a control. Media was removed from treated BMDM, centrifuged at 300×g for 5 min and supernatent analyzed using the Cytometric Bead Array Mouse Inflammation Kit (BD Biosciences, San Jose, Calif.). Cytokine data were analyzed using Flowjo software (Ashland, Oreg.) and GraphPad Prism version 4.0 (GraphPad, La Jolla, Calif.). Cell pellets were lysed and analyzed for IκB and NFκB by Western blot as previously described (Miyazaki, T. et al. Journal of Atherosclerosis and Thrombosis 20, 228-237, 2013). […] Each day 4 wells were quantified using Celltiter MTS reagent (Promega) and the resulting signal was used to generate a proliferation curve. Calpain activity was measured using a Calpain activity assay kit (BioVision, Inc., Milpitas, Calif.) as previously described. Colons were harvested on day 4 and calpain activity measured. […]

Turning to `CC(C)C[C@H](NC(=O)OCc1ccccc1)C(=O)N[C@@H](CC(C)C)C(=O)N[C@@H](Cc1ccc(O)cc1)C(=O)CF` [zLLY-CH2F, Z-LLY-CH2F] (Cbz-Leu-Leu-Tyr-CH2F), the M-Calpain activity entry was “reduced”.
